Test results reported in patent US20060069132A1, “Azolecarboxamide herbicides” (priority 2004, published 2006).

Tests used:
downy bromegrass [1] = assay: Test E pre-/postemergence herbicide test; assay type: in vivo, Bromus tectorum; conditions: Preemergence
Procedure, shortened: (§1)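 Test chemicals in a non-phytotoxic solvent mixture with surfactant applied preemergence to planted seeds and postemergence to plants 2 to 18 cm tall (1- to 4-leaf stage). After 12 to 14 days in the greenhouse, injury rated visually against untreated controls on a 0–100 scale (0 no effect, 100 complete control).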

southern sandbur = assay: Test E pre-/postemergence herbicide test; assay type: in vivo, Cenchrus echinatus; conditions: Preemergence
Procedure, shortened: as §1

pitted morningglory = assay: Test E pre-/postemergence herbicide test; assay type: in vivo, Ipomoea lacunosa; conditions: Preemergence
Procedure, shortened: as §1

canarygrass = assay: Test C postemergence herbicide test; assay type: in vivo, Phalaris minor
Procedure, shortened: (§2)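 Postemergence sprays applied to plants 2 to 18 cm tall (1- to 4-leaf stage); paddy species grown to 2-leaf stage under flooding. After 12 to 14 days in greenhouse, visual rating versus untreated controls on 0–100 scale (0 no effect, 100 complete control).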

winter barley = assay: Test C postemergence herbicide test; assay type: in vivo, Hordeum vulgare
Procedure, shortened: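 Postemergence sprays were applied to plants 2 to 18 cm tall (1- to 4-leaf stage); in the flooded paddy test, barnyardgrass was grown to the 2-leaf stage. After 12 to 14 days in a greenhouse, injury was visually rated against untreated controls on a 0–100 scale (100 = complete control).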

annual bluegrass = assay: Test E pre-/postemergence herbicide test; assay type: in vivo, Poa annua; conditions: Preemergence
Procedure, shortened: as §1

windgrass = assay: Test C postemergence herbicide test; assay type: in vivo, Apera spica-venti
Procedure, shortened: as §2

common mallow = assay: Test E pre-/postemergence herbicide test; assay type: in vivo, Malva sylvestris; conditions: Preemergence
Procedure, shortened: as §1

green foxtail = assay: Test E pre-/postemergence herbicide test; assay type: in vivo, Setaria viridis; conditions: Preemergence
Procedure, shortened: as §1

common sowthistle = assay: Test E pre-/postemergence herbicide test; assay type: in vivo, Sonchus oleraceous; conditions: Preemergence
Procedure, shortened: as §1

dallisgrass = assay: Test E pre-/postemergence herbicide test; assay type: in vivo, Paspalum dilatatum; conditions: Preemergence
Procedure, shortened: as §1

large crabgrass = assay: Test E pre-/postemergence herbicide test; assay type: in vivo, Digitaria sanguinalis; conditions: Preemergence
Procedure, shortened: as §1

downy bromegrass [2] = assay: Test C postemergence herbicide test; assay type: in vivo, Bromus tectorum
Procedure, shortened: as §2

[3] = 250 g ai/ha, scale 0 (no effect) to 100 (complete control)
[4] = 500 g ai/ha, scale 0 (no effect) to 100 (complete control)
[5] = Postemergence, 250 g ai/ha, scale 0 to 100, 0 no effect, 100 complete control
[6] = postemergence, 125 g ai/ha, scale 0 to 100
[7] = postemergence, 31 g ai/ha, scale 0 to 100
[8] = postemergence, 62 g ai/ha, scale 0 to 100
[9] = Postemergence, 125 g ai/ha, scale 0 to 100, 0 no effect, 100 complete control
[10] = postemergence, 62 g ai/ha, scale 0 to 100 (0 no effect, 100 complete control)
[11] = 125 g ai/ha, scale 0 (no effect) to 100 (complete control)
[12] = Postemergence, 500 g ai/ha, scale 0 to 100

## CCN1N=C(C(C)(C)C)CC1C(=O)Nc1cc(C(=O)N(C)C)ccc1F (stereo not drawn) [Compound 268, N-[5-[(dimethylamino)carbonyl]-2-fluorophenyl]-3-(1,1-dimethylethyl)-1-ethyl-4,5-dihydro-1H-pyrazole-5-carboxamide]
Downy bromegrass [1]; 125 g ai/ha, scale 0 to 100
  Plant response rating, Bromegrass, Downy: 80
Downy bromegrass [1]; [3]
  Plant response rating, Bromegrass, Downy: 80
Downy bromegrass [1]; [4]
  Plant response rating, Bromegrass, Downy: 100
Southern sandbur; 62 g ai/ha, scale 0 to 100
  Plant response rating, Sandbur: 10
Southern sandbur; 125 g ai/ha, scale 0 to 100
  Plant response rating, Sandbur: 70
Southern sandbur; [3]
  Plant response rating, Sandbur: 100
Southern sandbur; [4]
  Plant response rating, Sandbur: 100
Pitted morningglory; 62 g ai/ha, scale 0 to 100
  Plant response rating, Morningglory: 10
Pitted morningglory; 125 g ai/ha, scale 0 to 100
  Plant response rating, Morningglory: 10
Pitted morningglory; [3]
  Plant response rating, Morningglory: 40
Pitted morningglory; [4]
  Plant response rating, Morningglory: 60
canarygrass; [5]
  Plant response rating, Canarygrass: 50
canarygrass; [6]
  Plant response rating, Canarygrass: 30
canarygrass; [7]
  Plant response rating, Canarygrass: 10
canarygrass; [8]
  Plant response rating, Canarygrass: 10
Winter barley; [9]
  Plant response rating, Barley, Winter: 15
Winter barley; [5]
  Plant response rating, Barley, Winter: 30
Winter barley; [7]
  Plant response rating, Barley, Winter: 0
Winter barley; [10]
  Plant response rating, Barley, Winter: 0
Annual bluegrass; 62 g ai/ha, scale 0 to 100
  Plant response rating, Bluegrass: 80
Annual bluegrass; 125 g ai/ha, scale 0 to 100
  Plant response rating, Bluegrass: 95
Annual bluegrass; [3]
  Plant response rating, Bluegrass: 95
Annual bluegrass; [4]
  Plant response rating, Bluegrass: 95
windgrass; [5]
  Plant response rating, Windgrass: 100
windgrass; [6]
  Plant response rating, Windgrass: 60
windgrass; [8]
  Plant response rating, Windgrass: 30
Common mallow; 62 g ai/ha, scale 0 to 100
  Plant response rating, Mallow: 50
Common mallow; 125 g ai/ha, scale 0 to 100
  Plant response rating, Mallow: 50
Common mallow; [3]
  Plant response rating, Mallow: 80
Common mallow; [4]
  Plant response rating, Mallow: 90
Green foxtail; 62 g ai/ha, scale 0 to 100
  Plant response rating, Foxtail, Green: 70
Green foxtail; 125 g ai/ha, scale 0 to 100
  Plant response rating, Foxtail, Green: 95
Green foxtail; [3]
  Plant response rating, Foxtail, Green: 100
Green foxtail; [4]
  Plant response rating, Foxtail, Green: 100
Common sowthistle; 62 g ai/ha, scale 0 to 100
  Plant response rating, Sowthistle: 80
Common sowthistle; 125 g ai/ha, scale 0 to 100
  Plant response rating, Sowthistle: 100
Common sowthistle; [3]
  Plant response rating, Sowthistle: 100
Common sowthistle; [4]
  Plant response rating, Sowthistle: 100
dallisgrass; 62 g ai/ha, scale 0 to 100
  Plant response rating, Dallisgrass: 70
dallisgrass; 125 g ai/ha, scale 0 to 100
  Plant response rating, Dallisgrass: 80
dallisgrass; [3]
  Plant response rating, Dallisgrass: 85
dallisgrass; [4]
  Plant response rating, Dallisgrass: 85
Large crabgrass; 62 g ai/ha, scale 0 to 100
  Plant response rating, Crabgrass, Large: 70
Large crabgrass; 125 g ai/ha, scale 0 to 100
  Plant response rating, Crabgrass, Large: 80
Large crabgrass; [3]
  Plant response rating, Crabgrass, Large: 95
Large crabgrass; [4]
  Plant response rating, Crabgrass, Large: 95
Downy bromegrass [2]; [5]
  Plant response rating, Bromegrass, Downy: 40
Downy bromegrass [2]; [6]
  Plant response rating, Bromegrass, Downy: 30
Downy bromegrass [2]; [7]
  Plant response rating, Bromegrass, Downy: 0
Downy bromegrass [2]; [8]
  Plant response rating, Bromegrass, Downy: 10

## CCNC(=O)c1cccc(NC(=O)c2cc(C(C)(C)C)nn2CC)n1 [Compound 144]
Downy bromegrass [1]; 62 g ai/ha, scale 0 to 100
  Plant response rating, Bromegrass, Downy: 20
Downy bromegrass [1]; [11]
  Plant response rating, Bromegrass, Downy: 50
Downy bromegrass [1]; [3]
  Plant response rating, Bromegrass, Downy: 60
Downy bromegrass [1]; [4]
  Plant response rating, Bromegrass, Downy: 80
Southern sandbur; 62 g ai/ha, scale 0 to 100
  Plant response rating, Sandbur: 10
Southern sandbur; [11]
  Plant response rating, Sandbur: 30
Southern sandbur; [3]
  Plant response rating, Sandbur: 30
Southern sandbur; [4]
  Plant response rating, Sandbur: 60
Pitted morningglory; 62 g ai/ha, scale 0 to 100
  Plant response rating, Morningglory: 0
Pitted morningglory; [11]
  Plant response rating, Morningglory: 20
Pitted morningglory; [3]
  Plant response rating, Morningglory: 20
Pitted morningglory; [4]
  Plant response rating, Morningglory: 100
canarygrass; [12]
  Canarygrass plant response rating: 50
canarygrass; [5]
  Plant response rating, Canarygrass: 40
canarygrass; [6]
  Plant response rating, Canarygrass: 40
canarygrass; [8]
  Plant response rating, Canarygrass: 40
Winter barley; [12]
  Barley, Winter plant response rating: 40
Winter barley; [9]
  Plant response rating, Barley, Winter: 20
Winter barley; [5]
  Plant response rating, Barley, Winter: 30
Winter barley; [10]
  Plant response rating, Barley, Winter: 0
Annual bluegrass; 62 g ai/ha, scale 0 to 100
  Plant response rating, Bluegrass: 80
Annual bluegrass; [11]
  Plant response rating, Bluegrass: 90
Annual bluegrass; [3]
  Plant response rating, Bluegrass: 100
Annual bluegrass; [4]
  Plant response rating, Bluegrass: 100
windgrass; [12]
  Windgrass plant response rating: 70
windgrass; [5]
  Plant response rating, Windgrass: 60
windgrass; [6]
  Plant response rating, Windgrass: 60
windgrass; [8]
  Plant response rating, Windgrass: 50
Common mallow; 62 g ai/ha, scale 0 to 100
  Plant response rating, Mallow: 60
Common mallow; [11]
  Plant response rating, Mallow: 60
Common mallow; [3]
  Plant response rating, Mallow: 70
Common mallow; [4]
  Plant response rating, Mallow: 95
Green foxtail; 62 g ai/ha, scale 0 to 100
  Plant response rating, Foxtail, Green: 10
Green foxtail; [11]
  Plant response rating, Foxtail, Green: 50
Green foxtail; [3]
  Plant response rating, Foxtail, Green: 80
Green foxtail; [4]
  Plant response rating, Foxtail, Green: 90
Common sowthistle; 62 g ai/ha, scale 0 to 100
  Plant response rating, Sowthistle: 10
Common sowthistle; [11]
  Plant response rating, Sowthistle: 50
Common sowthistle; [3]
  Plant response rating, Sowthistle: 90
Common sowthistle; [4]
  Plant response rating, Sowthistle: 95
dallisgrass; 62 g ai/ha, scale 0 to 100
  Plant response rating, Dallisgrass: 0
dallisgrass; [11]
  Plant response rating, Dallisgrass: 30
dallisgrass; [3]
  Plant response rating, Dallisgrass: 60
dallisgrass; [4]
  Plant response rating, Dallisgrass: 80
Large crabgrass; 62 g ai/ha, scale 0 to 100
  Plant response rating, Crabgrass, Large: 0
Large crabgrass; [11]
  Plant response rating, Crabgrass, Large: 40
Large crabgrass; [3]
  Plant response rating, Crabgrass, Large: 50
Large crabgrass; [4]
  Plant response rating, Crabgrass, Large: 60
Downy bromegrass [2]; [12]
  Bromegrass, Downy plant response rating: 40
Downy bromegrass [2]; [5]
  Plant response rating, Bromegrass, Downy: 40
Downy bromegrass [2]; [6]
  Plant response rating, Bromegrass, Downy: 40
Downy bromegrass [2]; [8]
  Plant response rating, Bromegrass, Downy: 20
